Test results published in patent publication US20130317096A1, “SYNERGISTIC INTERACTION OF AT LEAST ONE VITAMIN E COMPONENT AND TYROSINASE INHIBITORS FOR DERMATOLOGICAL APPLICATIONS” (Davos Life Science Pte Ltd, priority 2010, published 2013).
“Also recorded” adds a separate entry of the source.

Columns and labels:
B16 melanoma cells [1] = experiment: MTT cell viability assay; type: cell-based, mouse; details: 24 hrs of treatment, increasing dosages
Protocol: B16 mouse melanoma cells were purchased from (ATCC, Manassas, Va., USA).
The base medium for the cell line was Dulbecco's modified Eagle's medium (DMEM). To make the complete growth medium, fetal bovine serum (final concentration, 10%) was added to the base medium. Tocotrienol (T3) and tocopherol (TP) isomers and the palm tocotrienol-rich fraction (TRF) were purified from a palm fatty acid distillate (PFAD) using molecular distillation and Novasep® equipment (Novasep, Pompey, France). The extraction facility is located in Tuas, Singapore. The PFAD feed was purchased from Kuala Lumpur Kepong Berhad (Kuala Lumpur, Malaysia). The purity of the vitamin E isomers was verified by HPLC and gas chromatography (GC) percentage peak area.
For the cell viability study, 5×10^3 cells re-suspended in 100 μl of medium were plated into each well of a 96-well plate. The cells were then treated with different concentrations of the vitamin-E isomers for 24 hrs. After the treatment, 20 μl of MTT solution (1 mg/ml in PBS; Sigma-Aldrich, St. Louis, Mo., USA) was added to each well and the cells were incubated at 37° C. for 2 hrs. The formazan crystals were then re-suspended in 200 μl of DMSO and the intensity at 595 nm was measured.

[2] = system: cleaved caspase 3 and PARP; experiment: Western blot of apoptotic molecules; type: cell-based, mouse; details: B16 melanoma cells
tyrosinase mRNA = experiment: Reverse transcriptase PCR of tyrosinase mRNA; type: cell-based, mouse; details: B16 melanoma cells
Text: Total RNA was isolated using Trizol reagent according to the manufacturer's protocol (Invitrogen, Carlsbad, Calif., USA). cDNA was synthesized using the SuperScript First Strand Synthesis System (Invitrogen, Carlsbad, Calif., USA) and was then amplified by PCR with tyrosinase-specific primers (forward primer, tyrosinase-S,5′-[…]-3′ [−2236/−2217] (SEQ ID NO: 1) and reverse primer, tyrosinase-AS,5′-[…]-3′ [+63/+42]) (SEQ ID NO: 2) and GAPDH specific primers: 5′ to 3′F […] (SEQ ID NO: 3); 5′ to 3′R […] (SEQ ID NO: 4). The PCR cycling protocol was as follows: 30 cycles for 10 min at 95° C., 30 sec at 95° C., 30 sec at 55° C., 1 min at 72° C., and 10 min at 72° C. Glyceraldehyde 3-phosphate dehydrogenase (GAPDH) was amplified as an internal control. The PCR products were electrophoresed on a 2% agarose gel and analyzed using a gel documentation system.

tyrosinase [3] = experiment: Western blot of tyrosinase protein expression in B16 melanoma cells; type: cell-based, mouse; details: for tyrosinase protein expression: 20 μM treatment; for tyrosinase protein suppression, dose response and relative potency: increasing dosage; for time response of tyrosinase suppression: single dose, 24 hrs versus 48 hrs
Protocol: Carcinogenesis, 2006, 27, 2180-9. Briefly, cell lysates were prepared by suspending cell pellets in lysis buffer (50 mmol/l Tris-HCl [pH 8.0], 150 mmol/l NaCl, 1% NP40, 0.5% deoxycholate, 0.1% SDS, […], 1 μg/ml leupeptin, and 1 mmol/l phenylmethylsulfonyl fluoride). The protein concentration was measured using the DC Protein Assay kit (Bio-Rad, Hercules, Calif., USA). An equal amount of protein (30 μg) was loaded onto a 10% SDS polyacrylamide gel for electrophoresis, then transferred onto a polyvinylidene difluoride membrane (Amersham, Piscataway, N.J., USA). The membrane was then incubated with primary antibodies for 1 hr at room temperature against tyrosinase, Id1, and beta-actin (Santa Cruz Biotechnology, Inc., Santa Cruz, Calif., USA). After incubation with appropriate secondary antibodies, signals were visualized by an ECL Western blotting system (Amersham). The expression of β-actin was assessed as an internal loading control for total cell lysate.

tyrosinase [4] = target: T1, tyrosinase (Mus musculus, UniProt P11344); experiment: Tyrosinase activity of treated B16 melanoma cells (L-DOPA, dopachrome formation); type: cell-based; details: 20 μM; for tyrosinase activity: day 9
T1 construct: suppression of tyrosinase protein expression in B16 melanoma cells; endogenous in cells; host or cells: B16 melanoma cells
T1 sequence (P11344 19-533): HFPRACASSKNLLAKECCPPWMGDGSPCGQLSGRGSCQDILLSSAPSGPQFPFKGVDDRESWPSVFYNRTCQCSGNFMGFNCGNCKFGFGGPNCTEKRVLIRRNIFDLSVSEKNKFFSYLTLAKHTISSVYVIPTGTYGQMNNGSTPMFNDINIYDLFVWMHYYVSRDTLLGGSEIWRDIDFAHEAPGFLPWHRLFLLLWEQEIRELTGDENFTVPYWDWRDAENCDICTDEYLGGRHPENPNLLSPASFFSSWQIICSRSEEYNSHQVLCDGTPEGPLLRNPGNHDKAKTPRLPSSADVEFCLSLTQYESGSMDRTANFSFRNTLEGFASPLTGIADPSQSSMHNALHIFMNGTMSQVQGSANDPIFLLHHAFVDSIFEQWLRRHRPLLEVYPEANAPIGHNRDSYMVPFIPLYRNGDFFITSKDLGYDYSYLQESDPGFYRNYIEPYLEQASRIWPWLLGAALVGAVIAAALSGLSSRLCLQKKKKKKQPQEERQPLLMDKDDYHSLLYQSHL
Protocol: (§1) At different time points, cells were harvested using trysin-EDTA and the cell pellets were washed once with phosphate-buffered saline (PBS). A sample amount from each compound treatment group was divided into two equal parts. These cell pellets were then stored at −80° C. prior to the measurement of the tyrosinase activity and melanin content.
Harvested cell pellets were homogenized in RIPA buffer (10 mM Tris-HCl [pH 7.5], 1% NP-40, 0.1% sodium deoxycholate, 0.1% SDS, 150 mM sodium chloride, and 1 mM EDTA) with protease inhibitors and placed on ice for 30 min. The supernatants were collected after centrifuging the samples at 15,000 g at 4° C. for 30 min. For every 100 μl of supernatant, 200 μl of 0.3% L-DOPA (Sigma-Aldrich) was added. All samples, including a blank control of RIPA buffer and 0.3% L-DOPA, were incubated at 37° C. for 20 min. The dopachrome formation from each sample was then measured at 475 nm. The absorbance percentage values of the treated groups in comparison to untreated controls were calculated against per μg of the total protein content, which was determined using the DC protein assay (Bio-Rad, Hercules, Calif., USA).

B16 melanoma cells [5] = experiment: Anti-pigmentation effect, photographs of cell pellets; type: cell-based, mouse; details: 20 μM
Protocol: as §1

tyrosinase [6] = experiment: UV-induced tyrosinase protein expression, Western blot; type: cell-based, mouse
Protocol: (§2) The UVB source for cell irradiation was provided using a UVP UVM-57 handheld UV lamp (UVP Inc, Upland, Calif., USA).
Briefly, cell lysates were prepared by suspending cell pellets in lysis buffer (50 mmol/l Tris-HCl [pH 8.0], 150 mmol/l NaCl, 1% NP40, 0.5% deoxycholate, 0.1% SDS, 1 mg/ml aprotinin, 1 μg/ml leupeptin, and 1 mmol/l phenylmethylsulfonyl fluoride). The protein concentration was measured using the DC Protein Assay kit (Bio-Rad, Hercules, Calif., USA). An equal amount of protein (30 μg) was loaded onto a 10% SDS polyacrylamide gel for electrophoresis, then transferred onto a polyvinylidene difluoride membrane (Amersham, Piscataway, N.J., USA). The membrane was then incubated with primary antibodies for 1 hr at room temperature against tyrosinase, Id1, and beta-actin (Santa Cruz Biotechnology, Inc., Santa Cruz, Calif., USA). After incubation with appropriate secondary antibodies, signals were visualized by an ECL Western blotting system (Amersham). The expression of β-actin was assessed as an internal loading control for total cell lysate.

B16 cells = experiment: Melanin content of pre-treated B16 cells after UV exposure; type: cell-based, mouse; details: 10 minutes UV exposure (short and long wave UV)
Protocol: as §2
Harvested cell pellets were dissolved in 1 ml of 1N sodium hydroxide before incubation at 80° C. The melanin content was then immediately measured at 420 nm. The absorbance percentage values of the treated groups in comparison to untreated controls were calculated against per μg of the determined total protein content.

SMILES: CC(C)=CCC/C(C)=C/CC/C(C)=C/CCC1(C)CCc2cc(O)c(C)c(C)c2O1 (stereo not shown) [γ-tocotrienol, 7,8-dimethyltocotrienol]
- B16 melanoma cell viability / proliferation rate (B16 melanoma cells [1]): inhibited the proliferation rate of B16 melanoma cells in a dose-dependent fashion; also recorded: inhibit B16 melanoma cell viability at high concentrations
- induction of apoptotic molecules (cleaved caspase 3 and PARP) [2]: induced critical apoptotic molecules in a dose-dependent manner
- induction of apoptotic molecules (cleaved caspase 3 and PARP) ([2]; listed as γ-T3): induced cellular apoptosis
- tyrosinase mRNA (tyrosinase mRNA): No change of tyrosinase mRNA
- tyrosinase mRNA (tyrosinase mRNA; listed as γ-T3): not affected
- tyrosinase protein expression (tyrosinase [3]; listed as γ-T3): remarkable suppression of tyrosinase protein expression
- tyrosinase protein expression (tyrosinase [3]; listed as γT3): suppresses tyrosinase protein expression
- tyrosinase protein suppression, dose response and relative potency (tyrosinase [3]; listed as γ-T3): significant suppression of tyrosinase in a dose-dependent manner
- tyrosinase protein suppression, dose response and relative potency (tyrosinase [3]; listed as γT3): stronger
- time response of tyrosinase suppression (tyrosinase [3]; listed as γ-T3): enhanced by increasing the treatment period from 24 to 48 hrs
- time response of tyrosinase suppression (tyrosinase [3]; listed as γT3): enhanced after a 48 hr incubation period
- tyrosinase activity (tyrosinase [4]; listed as gamma T3): significantly suppressed the activity of tyrosinase on day 9
- tyrosinase activity (tyrosinase [4]; listed as γT3): comparable to that treated with 0.05% kojic acid
- tyrosinase activity compared to controls (tyrosinase [4]; day 15): < 15%
- cell pellet pigmentation (B16 melanoma cells [5]; listed as gamma T3): lighter cell pigmentation
- cell pellet pigmentation (B16 melanoma cells [5]; listed as γT3): lighter cell pigmentation
- tyrosinase protein expression of B16 cells exposed to UV (tyrosinase [6]; UV 1, 10, 30 and 60 minutes): significantly suppressed the tyrosinase protein expression
- long-term inhibitory effect on UVB-induced tyrosinase activation (tyrosinase [6]; long-term UVB): comparable
- melanin content after UV exposure (B16 cells): significantly suppressed the melanin content
